Laboratory results: patent US5039805A, “Novel benzoic and phenylacetic acid derivatives” (Hoffmann-La Roche Inc., priority 1988, dated 1991)
Where a SMILES comes first, the peptide text is derived from it. [ ]: non-standard residue; d: D form. The star is where a group is joined. 3Abz = Nc1cccc(C(=O)O)c1; Boc = CC(C)(C)OC(=O)*

Biological target: T1, fibrinogen receptor, glycoprotein IIb/IIIa (Homo sapiens, UniProt P05106+P08514)
T1 construct: obtained from Triton X-100 extracts of human blood platelets; from tissue
Test: inhibition of the binding of fibrinogen to the immobilized fibrinogen receptor (ELISA)
Details: fibrinogen binding to immobilized glycoprotein IIb/IIIa from human blood platelets, read-out: IC50 (inhibition of the binding of fibrinogen to the immobilized receptor by 50%)
Protocol: The glycoprotein IIb/IIIa is obtained from Triton X-100 extracts of human blood platelets and is purified by lectin affinity chromatography (Analytical Biochemistry 151, 1985, 169-177) and chromatography on an Arg-Gly-Asp-Ser affinity column (Science 231, 1986, 1559-62). The thus-obtained receptor protein is bonded to microtitre plates. The specific binding of fibrinogen to the immobilized receptor is determined with the aid of an ELISA system ("enzyme-linked immunosorbent assay"). The IC50 values hereinafter correspond to that concentration of the test substance which is required to inhibit the binding of fibrinogen to the immobilized receptor by 50%: […]

T1 sequence (P08514 32-887 limits assumed): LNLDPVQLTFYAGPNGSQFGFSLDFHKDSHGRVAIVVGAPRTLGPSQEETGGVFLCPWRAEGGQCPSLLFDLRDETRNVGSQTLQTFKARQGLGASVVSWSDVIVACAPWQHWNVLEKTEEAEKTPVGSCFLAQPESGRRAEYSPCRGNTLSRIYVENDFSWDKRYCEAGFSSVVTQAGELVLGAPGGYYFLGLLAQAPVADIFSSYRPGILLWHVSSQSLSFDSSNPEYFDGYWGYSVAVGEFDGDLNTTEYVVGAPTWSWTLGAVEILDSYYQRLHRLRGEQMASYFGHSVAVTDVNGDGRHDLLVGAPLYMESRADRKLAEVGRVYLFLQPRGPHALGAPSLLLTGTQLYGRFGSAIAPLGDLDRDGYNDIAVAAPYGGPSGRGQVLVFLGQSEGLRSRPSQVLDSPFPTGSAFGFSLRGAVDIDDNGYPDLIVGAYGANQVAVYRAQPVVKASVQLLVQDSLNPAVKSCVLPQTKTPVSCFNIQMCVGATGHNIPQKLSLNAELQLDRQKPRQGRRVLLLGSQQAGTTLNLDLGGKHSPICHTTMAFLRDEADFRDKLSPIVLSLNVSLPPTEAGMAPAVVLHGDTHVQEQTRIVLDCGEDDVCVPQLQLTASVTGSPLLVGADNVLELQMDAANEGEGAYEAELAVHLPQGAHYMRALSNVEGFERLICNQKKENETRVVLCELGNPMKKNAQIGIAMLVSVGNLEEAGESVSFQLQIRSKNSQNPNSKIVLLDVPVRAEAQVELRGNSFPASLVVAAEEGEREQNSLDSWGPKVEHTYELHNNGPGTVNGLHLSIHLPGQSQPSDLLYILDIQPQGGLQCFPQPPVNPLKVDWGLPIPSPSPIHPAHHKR
T1 sequence (P08514 891-1039 limits assumed): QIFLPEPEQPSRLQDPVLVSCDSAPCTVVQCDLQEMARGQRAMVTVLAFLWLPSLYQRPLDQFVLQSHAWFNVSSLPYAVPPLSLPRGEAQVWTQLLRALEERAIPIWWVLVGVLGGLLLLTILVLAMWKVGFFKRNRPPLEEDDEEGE
T1 sequence (P05106 27-788): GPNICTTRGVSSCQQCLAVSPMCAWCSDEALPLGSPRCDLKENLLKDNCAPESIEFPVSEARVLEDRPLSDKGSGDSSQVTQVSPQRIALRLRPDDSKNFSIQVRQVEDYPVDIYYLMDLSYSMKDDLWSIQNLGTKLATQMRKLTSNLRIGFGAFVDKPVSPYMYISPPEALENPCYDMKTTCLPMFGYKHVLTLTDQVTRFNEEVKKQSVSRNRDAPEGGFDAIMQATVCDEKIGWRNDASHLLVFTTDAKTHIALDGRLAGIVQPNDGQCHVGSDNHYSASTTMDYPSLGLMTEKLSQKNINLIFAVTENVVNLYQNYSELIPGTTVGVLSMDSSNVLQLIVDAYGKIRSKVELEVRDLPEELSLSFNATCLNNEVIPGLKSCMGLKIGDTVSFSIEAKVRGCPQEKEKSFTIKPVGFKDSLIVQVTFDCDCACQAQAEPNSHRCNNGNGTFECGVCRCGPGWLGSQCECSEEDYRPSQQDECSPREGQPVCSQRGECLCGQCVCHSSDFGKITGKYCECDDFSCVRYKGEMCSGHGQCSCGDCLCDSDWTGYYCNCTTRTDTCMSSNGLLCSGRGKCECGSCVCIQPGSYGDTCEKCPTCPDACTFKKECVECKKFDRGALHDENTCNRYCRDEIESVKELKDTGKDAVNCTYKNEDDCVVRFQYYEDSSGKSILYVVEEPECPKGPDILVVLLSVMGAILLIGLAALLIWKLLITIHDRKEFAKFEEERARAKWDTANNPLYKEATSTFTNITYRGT

Structure (SMILES)	IC50 [nM]
NCCCCC(=O)Nc1cccc(C(=O)NC(CC(=O)O)c2ccc3c(c2)CCC3)c1 (racemic) [Example 41, DL-N-[m-(5-aminovaleramido)benzoyl]-3-(5-indanyl)-β-alanine]	280
NCCCCCC(=O)Nc1cccc(C(=O)NCCC(=O)O)c1 [Example 5, N-[m-(6-aminohexanamido)benzoyl]-β-alanine]	270
NCc1ccc(C(=O)Nc2cccc(C(=O)NCCC(=O)O)c2)cc1 [Example 8, N-[m-(α-amino-p-toluamido)benzoyl]-β-alanine]	160
NCCCCC(=O)Nc1cccc(C(=O)NCCC(=O)O)c1 [Example 9, N-[m-(5-aminovaleramido)benzoyl]-β-alanine]	240
N=C(N)NCCCCCC(=O)Nc1cccc(C(=O)NCCC(=O)O)c1 [Example 10, N-[m-(6-guanidinohexanamido)benzoyl]-β-alanine]	260
N=C(N)NCc1ccc(C(=O)Nc2cccc(C(=O)NCCC(=O)O)c2)cc1 [Example 13, N-[m-(α-guanidino-p-toluamido)benzoyl]-β-alanine]	220
CC(C)[C@H](NC(=O)[C@H](CC(=O)O)NC(=O)c1cccc(NC(=O)[C@@H](N)CCCNC(=N)N)c1)C(=O)O [Example 14, N-[N-[m-(L-arginylamino)benzoyl]-L-α-aspartyl]-L-valine] (H-R[3Abz]DV-OH)	300
CC(C)[C@H](NC(=O)[C@H](CC(=O)O)NC(=O)c1cccc(NC(=O)[C@H](CCCN=C(N)N)NC(=O)OC(C)(C)C)c1)C(=O)O [Example 15, [m-(Boc-Arg-NH)benzoyl]-Asp-Val] (Boc-R[3Abz]DV-OH)	80
NCCCCCC(=O)Nc1ccc(Cl)c(C(=O)NCCC(=O)O)c1 [Example 17, N-[5-(6-aminohexanamido)-2-chlorobenzoyl]-β-alanine]	380
NCCCCCCC(=O)Nc1cccc(C(=O)NCCC(=O)O)c1 [Example 21, N-[m-(7-aminoheptanamido)benzoyl]-β-alanine]	460
N=C(N)NCCCCC(=O)Nc1cccc(C(=O)NCCC(=O)O)c1 [Example 22, N-[m-(5-guanidinovaleramido)benzoyl]-β-alanine]	250
N=C(N)NCCCC(=O)Nc1cccc(C(=O)NCCC(=O)O)c1 [Example 24, N-[m-(4-guanidinobutyramido)benzoyl]-β-alanine]	380
CC(C)(C)OC(=O)N[C@@H](CCCN)C(=O)Nc1cccc(C(=O)NCCC(=O)O)c1 [Example 28, N-[m-[[(S)-N2-(t-butoxycarbonyl)-L-ornithyl]amino]benzoyl]-β-alanine]	140
NCc1ccc(CC(=O)Nc2cccc(C(=O)NCCC(=O)O)c2)cc1 [Example 32, N-[m-[2-(α-amino-p-tolyl)acetamido]benzoyl]-β-alanine]	120
N=C(N)c1ccc(C(=O)Nc2cccc(C(=O)N[C@@H](CC(=O)O)C(=O)N[C@@H](Cc3cccc4ccccc34)C(=O)O)c2)cc1 [Example 34, N-[N-[m-(p-amidinobenzamido)benzoyl]-L-α-aspartyl]-3-(1-naphthyl)-L-alanine]	46
N=C(N)c1ccc(C(=O)Nc2cccc(C(=O)NCCC(=O)O)c2)cc1 [Example 35, N-[m-(p-amidinobenzamido)-benzoyl]-β-alanine]	0.1
N=C(N)NCC(=O)Nc1cccc(C(=O)NCCC(=O)O)c1 [Example 36, N-[m-[(N-amidinoglycyl)amino]benzoyl]-β-alanine]	270
NCCCCC(=O)Nc1ccc(OCc2ccccc2)c(C(=O)NCCC(=O)O)c1 [Example 46, N-[5-(5-aminovaleramido)-2-(benzyloxy)benzoyl]-β-alanine]	150
N=C(N)NCCCCC(=O)Nc1ccc(OCc2ccccc2)c(C(=O)NCCC(=O)O)c1 [Example 47, N-[2-(benzyloxy)-5-(5-guanidinovaleramido)benzoyl]-β-alanine]	180
N=C(N)c1ccc(C(=O)Nc2ccc(C(=O)NCCC(=O)O)cc2)cc1 [Example 51, N-[p-(p-amidinobenzamido)benzoyl]-β-alanine]	17
N=C(N)c1ccc(CC(=O)Nc2cccc(C(=O)NCCC(=O)O)c2)cc1 [Example 52, N-[m-[2-(p-amidinophenyl)acetamido]benzoyl]-β-alanine]	140
O=C(O)CCNC(=O)c1cccc(NC(=O)CCC2CCNCC2)c1 [Example 53, N-[m-[3-(4-piperidinyl)propionamido]benzoyl]-β-alanine]	70
N=C(N)c1ccc(C(=O)Nc2ccc(OCc3ccccc3)c(C(=O)NCCC(=O)O)c2)cc1 [Example 54, N-[5-(p-amidinobenzamido)-2-(benzyloxy)benzoyl]-β-alanine]	10
N=C(N)c1ccc(C(=O)Nc2cc(C(=O)NCCC(=O)O)ccc2OCc2ccccc2)cc1 [Example 55, N-[3-(p-amidinobenzamido)-4-(benzyloxy)benzoyl]-β-alanine]	25
N=C(N)c1ccc(C(=O)Nc2cc(C(=O)NCCC(=O)O)ccc2O)cc1 [Example 56, N-[3-(p-amidinobenzamido)-4-hydroxybenzoyl]-β-alanine]	5
COC(=O)[C@H](CC(=O)O)NC(=O)c1cccc(NC(=O)c2ccc(C(=N)N)cc2)c1 [Example 60, (S)-3-[m-(p-amidinobenzamido)benzamido]-3-(methoxycarbonyl)propionic acid]	50
N=C(N)N1CCC(C(=O)Nc2cccc(C(=O)N[C@@H](CC(=O)O)C(=O)N[C@@H](Cc3ccccc3)C(=O)O)c2)CC1 [Example 64, N-[N-[m-(1-amidino-4-piperidinecarboxamido)benzoyl]-L-α-aspartyl]-3-phenyl-L-alanine]	220
N=C(N)c1ccc(CC(=O)Nc2cccc(C(=O)N[C@@H](CC(=O)O)C(=O)N[C@@H](Cc3ccccc3)C(=O)O)c2)cc1 [Example 65, N-[N-[m-[2-(p-amidinophenyl)acetamido]benzoyl]-L-α-aspartyl]-3-phenyl-L-alanine]	84

Test system: not listed separately
Test: LD50 in the mouse (acute toxicity)
Details: in vivo, ip, intraperitoneally
Protocol: The compounds of formula I are non-toxic. Thus, the product of Example 10 has a LD50 of more than 1000 mg/kg intraperitoneally and more than 2000 mg/kg perorally in the mouse.

Structure (SMILES)	LD50 [mg/kg]
N=C(N)NCCCCCC(=O)Nc1cccc(C(=O)NCCC(=O)O)c1 [Example 10, N-[m-(6-guanidinohexanamido)benzoyl]-β-alanine]	> 1000

Same assay, conditions: in vivo, po, perorally

Structure (SMILES)	LD50 [mg/kg]
N=C(N)NCCCCCC(=O)Nc1cccc(C(=O)NCCC(=O)O)c1 [Example 10, N-[m-(6-guanidinohexanamido)benzoyl]-β-alanine]	> 2000
